We go through 14 molecules from US4994482A, “Arylpyrazol derivatives as anti-platelet agents, compositions and use” (Bristol-Myers Squibb Company, priority 1990, dated 1991).

Converted amounts (≈) assume the structure as drawn. Like-named read-outs stand apart in the source and are kept apart here.

The test system of assay [1] is human platelet-rich plasma (ADP-induced platelet aggregation). The assay is described as follows: In vitro inhibition of ADP-induced human platelet aggregation (Born aggregometer method). In kind it is cell-based. As to the method: (§1) The aggregometer method of Born, C. […] The human volunteer donor's arm is cleansed with 70% ethyl alcohol. A sterile 20 ml syringe and needle are used to withdraw 20 ml of blood.
(§2) All glassware used for preparation of PRP is silicon treated. […] The various compounds tested were dissolved in dimethylsulfoxide (DMSO) so that 5 mcl added to the platelet rich plasma would yield the desired test concentration. Vehicle control trials were done and compared with aggregation induced in platelet rich plasma containing various concentrations of the test compounds. Dose response curves were obtained and Inhibitor Concentration IC50) values calculated.

In assay [2] the test system is human platelet-rich plasma (collagen-induced platelet aggregation). The assay is described as follows: In vitro inhibition of collagen-induced human platelet aggregation (Born aggregometer method). In kind it is cell-based. The settings on record: human PRP, 0.05 mL of a collagen suspension. As for the experimental part:
as §1, §2

Assay [3] concerns biolaser induced thrombosis (thrombus formation). The assay is described as follows: In vivo inhibition of biolaser induced thrombosis in rabbit ear chamber. Set-up: species or system English lop-ear rabbits. The text has this: The laser induced thrombosis method is a modification of the technique developed by Sanders, A. G., et al. in Brit. J Exp. Pathol., 1954, 35, 331 and Grant, L., et al. in Proc. Soc. Exp. Biol. Med., 1965, 119, 1123. A detailed description of this method has been described by Fleming, J. S., et al., in Platelets and Thrombosis, A. Scriabine and S. Sherry, eds., Baltimore, Univ. Park Press, pp. 247-262, 1974 and is hereby incorporated by reference.
Briefly, Lucite ear chambers were chronically implanted in adult, English lop-ear rabbits. The animals were conditioned to lie quietly in the supine position. Localized microvascular injury was induced by focusing a single ruby laser beam through a microscope into the lumen of a vessel 10-60 μM in diameter. This evoked the formation of a small thrombus consisting of platelets accumulated around a core of one or two damaged red cells. Thrombus area was determined as a product of two perpendicular measurements made by using a micrometer eye piece. The mean thrombus area (μM^2) obtained for 10 trials in each rabbit served as a control value. The test compound was administered orally and post-dose trials were performed at selected times. Pharmacological activity was evaluated by comparing pre- and post-dose mean thrombus areas.

The mark [4] stands for this setting: human PRP, ADP 0.5 mcg/mL, read-out: IC50 - Human PRP vs:ADP.

In the case of `O=C(O)COCCCCCCn1nc(-c2ccccc2)c(-c2ccccc2)c1-c1ccccc1` [Example 4, [[6-(3,4,5-Triphenyl-lH-pyrazol-1-yl)hexyl]oxy]acetic acid], the IC50 is 0.2 µg/mL (≈ 0.44 µM) in assay [1] (setting [4]) and 0.096 µg/mL (≈ 0.211 µM) in assay [2].
`O=C(O)CCCCCCCn1nc(-c2ccccc2)c(-c2ccccc2)c1-c1ccccc1` [Example 8, 3,4,5-Triphenyl-lH-pyrazol-1-octanoic acid hydrate]: in assay [1] (setting [4]), the IC50 came out at 1.9 µg/mL.
As to `O=C(O)CCCC=CCCCn1nc(-c2ccccc2)c(-c2ccccc2)c1-c1ccccc1` [Example 10, (Z) and (E)-9-(3,4,5-Triphenyl-lH-pyrazol-1-yl)-5-nonenoic acid hydrate], the IC50 in assay [1] (setting [4]) amounted to 0.35 µg/mL; in assay [2] it was 0.12 µg/mL.
In the same order, the values of `COC(=O)CCCCCCCCn1nc(-c2ccccc2)c(-c2ccccc2)c1-c1ccccc1` [Example 14, Methyl 3,4,5-triphenyl-lH-pyrazol-1-nonanoate] are 2 µg/mL (≈ 4.29 µM) and 0.27 µg/mL (≈ 0.579 µM).
`O=C(O)CCCCCCCCn1nc(-c2ccccc2)c(-c2ccccc2)c1-c1ccccc1` [Example 15, 3,4,5-Triphenyl-lH-pyrazol-1-nonanoic acid hydrate]: the IC50 in assay [1] (setting [4]) was determined as 0.16 µg/mL; in assay [2], 0.068 µg/mL. The “inhibition of thrombus formation” value in assay [3] (oral 1 mg/kg) is on record as “approximately 30%”; in assay [3] (oral 10 mg/kg), “over 60%”; in assay [3] (oral 30 mg/kg), “over 60%”.
`O=C(O)CCCCCCCCn1cc(-c2ccccc2)c(-c2ccccc2)n1` [Example 17, 3,4-Diphenyl-lH-pyrazol-1-nonanoic acid hydrate]: the IC50 in assay [1] (setting [4]) is 1.5 µg/mL.
Regarding `O=C(O)CCCCCCCCn1ncc(-c2ccccc2)c1-c1ccccc1` [Example 18, 4,5-Diphenyl-lH-pyrazol-1-nonanoic acid], the values for the IC50 in assay [1] (setting [4]) and in assay [2] were 2.5 µg/mL (≈ 6.64 µM) and 0.45 µg/mL (≈ 1.2 µM), respectively.
Take `O=C(O)CSCCCCCCn1nc(-c2ccccc2)c(-c2ccccc2)c1-c1ccccc1` [Example 21, [[6-(3,4,5-Triphenyl-lH-pyrazol-1-yl)hexyl]thio]acetic acid]: the values for the IC50 in assay [1] (setting [4]) and in assay [2] were 0.41 µg/mL (≈ 0.871 µM) and 0.15 µg/mL (≈ 0.319 µM), respectively.
Take `O=C(O)C[S+]([O-])CCCCCCn1nc(-c2ccccc2)c(-c2ccccc2)c1-c1ccccc1` (stereo not shown) [Example 25, [[6-(3,4,5-Triphenyl-lH-pyrazol-1-yl)hexyl]sulfinyl]acetic acid hydrate]: the IC50 in assay [1] (setting [4]) amounted to 3.2 µg/mL.
For `O=C(O)CSCCCCCn1nc(-c2ccccc2)c(-c2ccccc2)c1-c1ccccc1` [Example 27, [[5-(3,4,5-Triphenyl-lH-pyrazol-1-yl)pentyl]thio]acetic acid], the IC50 in assay [1] (setting [4]) is 1.9 µg/mL (≈ 4.16 µM); in assay [2] it was 0.16 µg/mL (≈ 0.35 µM).
Turning to `O=C(O)CCCCCCCCCn1nc(-c2ccccc2)c(-c2ccccc2)c1-c1ccccc1` [Example 36, 3,4,5-triphenyl-lH-pyrazole-1-decanoic acid hydrate], in assay [1] (setting [4]), the IC50 is 3.5 µg/mL.
As to `c1ccc(-c2nn(CCCCCCCCc3nn[nH]n3)c(-c3ccccc3)c2-c2ccccc2)cc1` [Example 40, 5-[8-(3,4,5-Triphenyl-lH-pyrazol-1-yl)octyl]-2 H-tetrazole], the figures for the IC50 in assay [1] (setting [4]) and in assay [2] were 0.5 µg/mL (≈ 1.05 µM) and 0.052 µg/mL (≈ 0.109 µM), respectively.
As to `O=C(O)CCCCCCCn1ncc(-c2ccccc2)c1-c1ccccc1` [Example 44, 4,5-Diphenyl-lH-pyrazole-1-octanoic acid], in assay [1] (setting [4]), the IC50 is 0.6 µg/mL (≈ 1.66 µM).
Take `OCCN(CCO)c1nc(N2CCCCC2)c2nc(N(CCO)CCO)nc(N3CCCCC3)c2n1` [dipyridamole, reference compound]: the IC50 in assay [1] (Homo sapiens, read-out: IC50 vs. ADP) is above 512 µg/mL.
